# Laboratory results: publication PMC9084888, “FGFR2–BRD4 Axis Regulates Transcriptional Networks of Histone 3 Modification and Synergy Between Its Inhibitors and PD-1/PD-L1 in a TNBC Mouse Model” (Frontiers in Immunology, 2022)
# Assays:
# Assay type in all cases: cell-based, mouse
# c-Myc = assay: Western blot of c-Myc in treated Fgfr2-S252W tumor cells; settings: Figure 5F
# Protocol: (§1) Total proteins of tumors or cells were extracted using RIPA buffer with phosphatase and a protease inhibitor. Following a previously described protocol, immunoblotting was carried out using ChemiDocTM with corresponding antibodies. The antibodies used for IHC and Western blot are listed in Supplementary Table S2 .
# (§2) (C) Immunoblots with antibodies specific for the H3K9 acetylated lysine residues of histone H3 and pathway analysis of the activation of FGFR2 tumors or wild type (WT). […] (E) Assessment of the drug response of BGJ398, JQ1, or the combined treatment of Fgfr2-S252W tumor cells with the Alamar blue assay. […] (G) Inflammation analysis using real-time RT-PCR from Fgfr2-S252W or WT mouse. P-values by using GraphPad Prism 7 Software. **p < 0.01, ***p < 0.001, ****p < 0.0001.
# BRD4 = assay: Western blot of BRD4 in treated Fgfr2-S252W tumor cells; settings: Figure 5F
# Protocol: as §1, §2
# Fgfr2-S252W tumor cells = assay: Alamar blue drug response assay of Fgfr2-S252W tumor cells
# From the text: All animal experiments were approved by the University of Macau Animal Ethics Committee (under the protocol UMARE-015-2019). The generation of Fgfr2-S252W mice was described in a previous work ([19]). Transgenic mice were continually checked to accelerate the growth of mammary tumors. Tumor samples were cut using sharp blades into small pieces of about 0.1–0.3 cm in diameter and processed three ways, as follows: 1) two larger pieces were fixed in 10% formalin and processed for histology and immunohistochemistry (IHC) staining with antibodies; 2) three pieces were immediately frozen in liquid nitrogen and used for subsequent DNA, RNA, and protein isolation; and 3) all the remaining pieces were placed in a freezing medium [10% DMSO/25% serum/65% Dulbecco’s modified Eagle’s medium (DMEM)], slowly frozen to −80°C, and transferred into liquid nitrogen a few days later. […] Primary FGFR2 tumor cells were derived from the Fgfr2-S252W mouse model using a standard procedure and maintained in F-medium.
# Figure 5 (A, B) RT-PCR analysis of the mRNA levels of Brd4 (A) and c-Myc (B) in tumors from the activation of Fgfr2-S252W transgenic mice. (C) Immunoblots with antibodies specific for the H3K9 acetylated lysine residues of histone H3 and pathway analysis of the activation of FGFR2 tumors or wild type (WT). […]
SMILES,inhibition of c-Myc (Western blot) (c-Myc),inhibition of BRD4 (Western blot) (BRD4),resistance of Fgfr2-S252W tumor cells (Fgfr2-S252W tumor cells),"drug response of Fgfr2-S252W cells (Fgfr2-S252W tumor cells; cell culture conditions, single agent, compared to response to FGFR inhibitor BGJ398)"
CCN1CCN(c2ccc(Nc3cc(N(C)C(=O)Nc4c(Cl)c(OC)cc(OC)c4Cl)ncn3)cc2)CC1 [BGJ398],inhibit,inhibit,,
Cc1sc2c(c1C)C(c1ccc(Cl)cc1)=N[C@@H](CC(=O)OC(C)(C)C)c1nnc(C)n1-2 [JQ1],inhibit,inhibit,still showed resistance,not very sensitive
